From patent US7057052B2, “Heterocyclic quinones as pharmaceutical agents” (Duke University, priority 2002, dated 2006)
Where two headings read alike, the source gives them in different places.

Legend:
Format in all cases: biochemical
Cdc25B = biological target: T1, Cdc25B (Homo sapiens, UniProt P30305); experiment: Cdc25B phosphatase inhibition (50 μM screen, 3 pt. and 8 pt. IC-50); details: for IC50: Cdc25B; for inhibition at 50 µM: read-out: Percent Inhibition at 50 uM compound, Cdc25 B
T1 sequence (P30305 1-580): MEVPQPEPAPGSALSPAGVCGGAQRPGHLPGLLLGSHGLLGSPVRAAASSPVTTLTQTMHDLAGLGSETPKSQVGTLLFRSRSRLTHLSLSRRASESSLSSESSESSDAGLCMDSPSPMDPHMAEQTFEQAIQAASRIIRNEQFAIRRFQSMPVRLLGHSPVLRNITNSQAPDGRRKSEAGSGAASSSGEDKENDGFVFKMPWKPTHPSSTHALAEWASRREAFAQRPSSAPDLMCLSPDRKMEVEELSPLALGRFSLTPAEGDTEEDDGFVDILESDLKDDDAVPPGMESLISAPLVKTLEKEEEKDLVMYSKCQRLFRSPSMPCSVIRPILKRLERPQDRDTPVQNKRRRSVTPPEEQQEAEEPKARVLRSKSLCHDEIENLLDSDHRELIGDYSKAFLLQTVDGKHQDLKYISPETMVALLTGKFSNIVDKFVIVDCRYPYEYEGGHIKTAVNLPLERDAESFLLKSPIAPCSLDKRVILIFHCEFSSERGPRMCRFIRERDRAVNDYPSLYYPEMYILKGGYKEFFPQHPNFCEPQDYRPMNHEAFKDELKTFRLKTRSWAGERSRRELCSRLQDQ
Protocol: (§1) Using procedures known to those skilled in the art, the compounds listed in Table 3 were screened against Cdc25A, Cdc25B, and Cdc25C at 50 μM. […] To analyze these effects further, the compounds were then screened against Cdc25B in a 3 pt. IC-50, using 1, 7 and 50 μM. Several of the compounds were also screened with an 8 pt. IC-50 process, using 0.1–10 μM, allowing determination of Hill slopes.

Cdc25C = biological target: T2, Cdc25C (Homo sapiens, UniProt P30307); experiment: Cdc25C phosphatase inhibition screen at 50 μM; details: read-out: Percent Inhibition at 50 uM compound, Cdc25 C
T2 sequence (P30307 1-473): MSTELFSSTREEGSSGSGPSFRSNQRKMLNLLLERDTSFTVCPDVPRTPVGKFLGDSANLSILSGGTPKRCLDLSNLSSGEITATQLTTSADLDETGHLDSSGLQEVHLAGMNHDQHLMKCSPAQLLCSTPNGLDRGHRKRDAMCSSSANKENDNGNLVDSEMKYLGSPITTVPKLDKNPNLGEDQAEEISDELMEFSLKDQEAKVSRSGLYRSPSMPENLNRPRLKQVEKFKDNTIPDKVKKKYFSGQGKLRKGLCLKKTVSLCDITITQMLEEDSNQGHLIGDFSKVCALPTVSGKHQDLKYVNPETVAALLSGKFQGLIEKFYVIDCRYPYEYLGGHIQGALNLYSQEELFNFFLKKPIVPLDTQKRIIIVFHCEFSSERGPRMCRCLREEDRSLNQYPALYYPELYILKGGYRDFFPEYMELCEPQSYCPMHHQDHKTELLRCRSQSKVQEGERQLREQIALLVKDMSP
Protocol: as §1

Cdc25A = biological target: T3, Cdc25A (Homo sapiens, UniProt P30304); experiment: Cdc25A phosphatase inhibition screen at 50 μM; details: read-out: Percent Inhibition at 50 uM compound, Cdc25 A
T3 sequence (P30304 1-524): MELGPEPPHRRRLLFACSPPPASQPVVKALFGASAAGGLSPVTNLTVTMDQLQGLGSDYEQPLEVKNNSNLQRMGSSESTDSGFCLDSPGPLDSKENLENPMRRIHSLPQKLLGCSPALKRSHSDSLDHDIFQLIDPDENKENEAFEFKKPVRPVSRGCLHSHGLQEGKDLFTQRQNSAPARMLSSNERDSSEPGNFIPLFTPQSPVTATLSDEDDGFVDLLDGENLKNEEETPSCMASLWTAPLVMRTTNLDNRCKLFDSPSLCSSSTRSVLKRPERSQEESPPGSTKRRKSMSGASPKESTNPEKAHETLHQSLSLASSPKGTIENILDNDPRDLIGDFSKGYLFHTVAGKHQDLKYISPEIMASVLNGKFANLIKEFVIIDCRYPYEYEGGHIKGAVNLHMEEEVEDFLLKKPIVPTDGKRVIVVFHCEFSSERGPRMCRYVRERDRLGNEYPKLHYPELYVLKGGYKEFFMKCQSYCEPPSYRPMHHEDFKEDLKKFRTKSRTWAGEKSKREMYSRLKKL
Protocol: as §1

[1] = 3 pt. IC-50 using 1, 7 and 50 μM, read-out: IC50 (3 pt)

Row | IC50 (Cdc25B; [1]) [µM] | IC50 (Cdc25B; 8 pt. IC-50 using 0.1–10 μM, read-out: IC50 (8 pt)) [µM] | inhibition at 50 µM (Cdc25B) [%] | inhibition at 50 µM (Cdc25C) [%] | inhibition at 50 µM (Cdc25A) [%] | Compound
1 | 1.2 | 15.9 | 5 | 0 | 59 | O=C1C=C(O)C(=O)C(c2c[nH]c3cccc(F)c23)=C1O [3D, 2,5-dihydroxy-3-(4-fluoro-1H-indol-3-yl)-[1,4]-benzoquinone]
2 | 4.2 | – | 0 | 1 | 60 | Cc1cccc2c(C3=C(O)C(=O)C=C(O)C3=O)c[nH]c12 [5H, 2,5-dihydroxy-3-(7-methyl-1H-indol-3-yl)-[1,4]-benzoquinone]
3 | 2.5 | – | 61 | 55 | 94 | Cc1ccc2[nH]cc(C3=C(O)C(=O)C=C(O)C3=O)c2c1 [4H, 2,5-dihydroxy-3-(5-methyl-1H-indol-3-yl)-[1,4]-benzoquinone]
4 | 2.1 | – | 45 | 88 | 93 | O=C1C=C(O)C(=O)C(c2c[nH]c3c(Br)cccc23)=C1O [5G, 2,5-dihydroxy-3-(7-bromo-1H-indol-3-yl)-[1,4]-benzoquinone]
5 | 126 | – | 0 | 31 | 0 | COc1ccc2[nH]c(C)c(C3=C(O)C(=O)C=C(O)C3=O)c2c1 [7D, 2,5-dihydroxy-3-(2-methyl-5-methoxy-1H-indol-3-yl)-[1,4]-benzoquinone]
